Legend:
[1] = test system: cultured monocytes/macrophages; test: Phagocytosis assay with pHrodo S. aureus BioParticles; assay type: cell-based, human
Description: (§1) (A) Left panel: Flow cytometry analysis of indicated surface markers in monocytes transfected with siGFP or siVentX, respectively; right panel: bar graphs show the mean+SD of at least three separate experiments. *p<0.05; **p<0.01. (B) Effects of VentX knockdown on macrophage viability. Monocytes were transfected with either siGFP or siVentX and subsequently exposed to 100 ng/mL M-CSF for 3 days. Cells were then harvested and stained with PI and Annexin V and analyzed by flow cytometry. (C) Effects of VentX knockdown on phagocytosis. Monocytes were transfected with siGFP or siVentX. Phagocytosis assays were carried out as described in materials and methods. […]
Macrophages were generated through incubation of freshly isolated monocytes with 100 ng/mL M-CSF for 4 days. […] (A) Surface staining of CD40, CD80, CD86 and HLA-DR and intracellular staining of TNF-α and IL1-β were analyzed by flow cytometry. (B) Secreted TNF-α, IL1-β and IL12p70 from culture supernatants were determined with ELISA kits. (C) Reactive oxygen species (ROS) from siGFP or siVentX transfected macrophages were analyzed with fluorescence microscope (left) and flow cytometry (middle). […]
Phagocytosis of cultured monocytes/macrophages or U937 cells were performed with pHrodo™ S. aureus BioParticles® conjugates from Invitrogen. […] After extensive washings, cellular phagocytosis of bioparticles was monitored by flow cytometry. […]

primary monocytes = test: Monocyte to macrophage differentiation after siRNA transfection, surface markers by FACS; assay type: cell-based, human
Description: (A) knockdown of VentX expression in primary monocytes by RNA interference. Monocytes were transfected with siRNA against GFP or VentX through electroporation. VentX mRNA levels were determined by real time PCR at 3 days after transfection (left); VentX protein level was determined by western blotting at 4 days after transfection (right). (B) Effects of VentX knockdown on macrophage morphogenesis during M-CSF induced differentiation. Monocytes were transfected with either siGFP or siVentX and subsequently exposed to 100 ng/mL M-CSF. […] Magnification of photographs, ×200. Note: a portion of cells lost their original morphology during Wright-Giemsa staining procedure. (C) Effects of VentX knockdown on macrophage surface expression of CD71. […] Filled blue histogram represents the isotope control staining; red histogram represents monocytes transfected with siGFP; green histogram represents monocytes transfected with siVentX. (D) Bar graphs show mean+SD of 6 different experiments in (C). Paired t test was used to reveal the statistical significance. **p<0.01.
as §1
Surface expression of CD71 was determined by FACS analysis at 4 days after siRNA transfection. […]
Peripheral blood mononuclear cells (PBMC) from healthy adult donors at Children's Hospital Boston were isolated by Ficoll density gradient centrifugation. […] The purity of freshly isolated CD14^+ monocytes was more than 95% as analyzed by flow cytometry. […]

siVentX: VentX siRNA, forward 5′-UUCAGAAUCGCCGCAUGAAACACAAACGG-3′ (SEQ ID NO:4), reverse SEQ ID NO:5 (antisense CCGUUUGUGUUUCAUGCGGCGAUUCUGAA; listed as RNA, chemistry not given here)
phagocytotic capability of transfected macrophages ([1]; macrophages (FIG. 8E)): much weaker | phagocytotic activity of transfected monocytes ([1]; monocytes, in comparison with the control (FIG. 3C)): reduced phagocytotic activity | macrophage differentiation by GM-CSF or IL3 (primary monocytes; monocytes, 100 ng/mL GM-CSF or IL3, CD71 at 4 days (FIG. 15)): blocked macrophage differentiation | expression of macrophage phenotypic markers CD64, CD40, CD86, CD11b and CD11c (primary monocytes; transfected monocytes, M-CSF, compared with siGFP transfected control cells (FIG. 3A)): significantly down-regulated

From patent US10066272B2, “Human homeobox gene ventx and macrophage terminal differentiation and activation, compositions and methods thereof” (priority 2011, dated 2018)
